According to patent publication US11685716B2, “Plant growth inhibiting agent, and plant growth inhibiting method using same” (NATIONAL UNIVERSITY CORPORATION KUMAMOTO UNIVERSITY, priority 2017, dated 2023):

Experiments:
[1] = system: thale cress; assay: Plant growth inhibition index, thale cress on agar medium in test tube (Evaluation 8, 9); type: in vivo, thale cress (Col-0, wild-type strain); set-up: key: 0: No effect; 1: Growth of the root part was inhibited 50% or less compared with non-treated area.; 2: Growth of the root part was inhibited 50% or more compared with non-treated area.; 3: Growth of the root part was substantially inhibited.; 4: Germination was inhibited; conditions: for index on the plant growth inhibition effect: 200 μM, 8 days (Evaluation 8); for Index: Concentration 200 μM, 8 days (Evaluation 9, Table 2)
Experimental: 0.44% (w/v) Mixed salts for Murashige and Skoog medium (SIGMA), 1% (w/v) sucrose, and 0.05% (w/v) MES were mixed, and pH of the solution was adjusted to pH 5.7 with potassium hydroxide. 1.5% (w/v) Agar was added to the mixture, which was sterilized at 120° C. in an autoclave for 20 minutes. The test compound and dimethylformamide containing 1.5% of polyoxyethylenesorbitan monolaurate for a control experiment, were added at this stage and blended. In addition, the compound was used by adjusting an addition concentration to 200 μM. Four ml each of the medium was dispensed in sterile glass test tube ([…] RIKA GLASS CO., LTD.) to prepare agar medium.
As a plant material, Col-0, which is a wild-type strain of thale cress, was used.
Seeds, after their surfaces were sterilized, were planted on the agar medium, and the growth of the plant was carried out in a plant incubator (CFH-405) under the conditions of an illuminance of 3 at 23° C. with constant light. The plants on the agar medium were grown for 8 days in the chamber.
The plant growth inhibition effect of the compounds was evaluated by conversion to indexes according to the following investigation criteria.

[2] = system: Japanese bristlegrass; assay: Spray treatment to stems and leaves, killing weed index (Evaluation 10); type: in vivo; conditions: 2000 g active ingredient per hectare, two weeks later
Experimental: (§1) POA allyl phenyl ether (4.1 parts by weight), POE-POP glycol (1 part by weight), POE sorbitan laurate (0.8 parts by weight), glycerin (2.6 parts by weight), dimethylformamide (65.9 parts by weight), N-methylpyrrolidone (5.1 parts by weight), cyclohexanone (15.4 parts by weight), and aromatic hydrocarbon (5.1 parts by weight) were mixed and dissolved to prepare an emulsion. The compounds of the present invention (4 mg) were dissolved in this emulsion (100 μL) to prepare a test emulsion. In addition, POA means “polyoxyalkylene”, POE means “polyoxyethylene”, and POP means “polyoxypropylene.”
(§2) Four hundred μL of the above test emulsion was diluted with 7600 μL of water to use as a test spray liquid.
(§3) Further, 400 μL of the above test emulsion was diluted with 1600 μL of a 1% Tween20 aqueous solution to use as a spray liquid for a small amount spray test.
(§4) For a comparative spray liquid, 53 μL of a 30% pendimethalin emulsion (Gogosan emulsion: manufactured by BASF Japan) as a control pesticides was diluted with 7947 μL of water. Further, for a comparative spray liquid for a small amount spray test, 53 μL of the 30% pendimethalin emulsion was diluted with 1947 μL of water.
(§5) A 150 cm^2 pot was filled with a soil, seeds of each purple amaranth, Japanese bristlegrass, southern crabgrass, and velvet leaf were sown on the surface layer, lightly covered with a soil and grown in a greenhouse. When each plant grew to a plant height of 2 to 9 cm, the test spray liquid was sprayed to the stem and leaf parts with a small spraying machine such that an active ingredient amount was 2000 g per hectare and a sprayed liquid amount was 1000 L per hectare.
(§6) Similarly, the test spray liquid for a small amount spray test was sprayed to the stem and leaf parts with a small spraying machine such that an active ingredient amount was 2000 g per hectare and a sprayed liquid amount was 250 L per hectare.
(§7) Two weeks later, the above-ground grass weight in non-treated areas and the above-ground grass weight in treated areas, by the weed, were measured to calculate a killing weed rate by the following calculating formula.
(§8) (a) Calculating Formula of Weeding Rate Killing weed rate (%)=(above-ground grass weight in non-treated area−above-ground grass weight in treated area)/(above-ground grass weight in non-treated area)×100 (b) Killing Weed Indexes
(§9) The obtained killing weed rates were evaluated, such that a killing weed index was “10” when a killing weed rate is 100%, as “9” when a killing weed rate is 99% to 90%, “8” when a killing weed rate is 89% to 80%, “7” when a killing weed rate is 79% to 70%, “6” when a killing weed rate is 69% to 60%, “5” when a killing weed rate is 59% to 50%, “4” when a killing weed rate is 49% to 40%, “3” when a killing weed rate is 39% to 30%, “2” when a killing weed rate is 29% to 20%, “1” when a killing weed rate is 19% to 10%, and “0” when a killing weed rate is 9% to 0%.

[3] = system: purple amaranth; assay: as above; type: in vivo; conditions: 2000 g active ingredient per hectare, two weeks later
Experimental: as §1, §2, §3, §4, §5, §6, §7, §8, §9

[4] = system: southern crabgrass; assay: as above; type: in vivo; conditions: 2000 g active ingredient per hectare, two weeks later
Experimental: as §1, §2, §3, §4, §5, §6, §7, §8, §9

[5] = system: velvet leaf; assay: as above; type: in vivo; conditions: 2000 g active ingredient per hectare, two weeks later
Experimental: as §1, §2, §3, §4, §5, §6, §7, §8, §9

[6] = system: Japanese millet; assay: Seed treatment, plant growth inhibition index (Evaluation 11); type: in vivo; set-up: key: 0: No effect; 1: Growth of the root part was inhibited 50% or less compared with non-treated area.; 2: Growth of the root part was inhibited 50% or more compared with non-treated area.; 3: Growth of the root part was substantially inhibited.; 4: Germination was inhibited
Experimental: (§10) The compound of the present invention (2 mg) was dissolved in a 1.5% Tween dimethylformamide solution (100 μL) to use as a test chemical solution.
(§11) Eight mL of sterilized water was poured to a cherry cup (100Φ×45 mm) lined with a filter paper, subsequently 81.1 μL of the sterilized water was removed, and 81.1 μL of the test chemical solution was added such that a final concentration of the compound was 800 μM.
(§12) Further, cherry cups were similarly prepared such that a final concentration of the compound was 200 μM.
(§13) Seeds (Japanese millet: 3 grains, velvet leaf: 6 grains, Ragweed: 8 grains, morning glory: 2 grains) were planted on the filter paper in the cherry cups, followed by growing the plants in a thermostatic chamber at 25° C. under a light-dark cycle in which a light period is 12 hours and a dark period is 12 hours for 6 days.
(§14) In addition, with regards to the compound (9a) and the compound (9b), the plants were tested for 7 days.
(§15) Plant growth inhibition effects of the compounds were evaluated by conversion to indexes according to the following investigation criteria.

[7] = system: Ragweed; assay: as above; type: in vivo; set-up: key: 0: No effect; 1: Growth of the root part was inhibited 50% or less compared with non-treated area.; 2: Growth of the root part was inhibited 50% or more compared with non-treated area.; 3: Growth of the root part was substantially inhibited.; 4: Germination was inhibited
Experimental: as §10, §11, §12, §13, §14, §15

[8] = system: morning glory; assay: as above; type: in vivo; set-up: key: 0: No effect; 1: Growth of the root part was inhibited 50% or less compared with non-treated area.; 2: Growth of the root part was inhibited 50% or more compared with non-treated area.; 3: Growth of the root part was substantially inhibited.; 4: Germination was inhibited
Experimental: as §10, §11, §12, §13, §14, §15

[9] = system: velvet leaf; assay: as above; type: in vivo; set-up: key: 0: No effect; 1: Growth of the root part was inhibited 50% or less compared with non-treated area.; 2: Growth of the root part was inhibited 50% or more compared with non-treated area.; 3: Growth of the root part was substantially inhibited.; 4: Germination was inhibited
Experimental: as §10, §11, §12, §13, §14, §15

[10] = sprayed liquid amount 1000 L/ha
[11] = 200 μM, 6 days (9a, 9b: 7 days)

Row | SMILES | index on the plant growth inhibition effect [1] | killing weed index, Japanese bristlegrass ([2]; sprayed liquid amount 250 L/ha) | killing weed index, Japanese bristlegrass [2, 10] | killing weed index, Purple amaranth ([3]; sprayed liquid amount 250 L/ha) | killing weed index, Purple amaranth [3, 10] | killing weed index, Southern crabgrass ([4]; sprayed liquid amount 250 L/ha) | killing weed index, Southern crabgrass [4, 10] | killing weed index, Velvet leaf ([5]; sprayed liquid amount 250 L/ha) | killing weed index, Velvet leaf [5, 10] | plant growth inhibition index, Japanese millet [6, 11] | plant growth inhibition index, Japanese millet ([6]; 800 μM, 6 days) | plant growth inhibition index, Ragweed [7, 11] | plant growth inhibition index, Ragweed ([7]; 800 μM, 6 days) | plant growth inhibition index, Morning glory [8, 11] | plant growth inhibition index, Morning glory ([8]; 800 μM, 6 days) | plant growth inhibition index, Velvet leaf [9, 11] | plant growth inhibition index, Velvet leaf ([9]; 800 μM, 6 days) | Index [1]
1 | CCCCCCCCCOn1cccc1C(=O)O [Compound 8b] | 4 | 5 (“5” when a killing weed rate is 59% to 50%) | 5 (“5” when a killing weed rate is 59% to 50%) | 8 (“8” when a killing weed rate is 89% to 80%) | 3 (“3” when a killing weed rate is 39% to 30%) | 2 (“2” when a killing weed rate is 29% to 20%) | 4 (“4” when a killing weed rate is 49% to 40%) | 6 (“6” when a killing weed rate is 69% to 60%) | 0 (“0” when a killing weed rate is 9% to 0%) | 3 (Growth of the stem and leave parts was inhibited 30% or more compared with non-treated area, or growth of the only root part was inhibited 60% or more compared with non-treated area.) | 10 | 3 (Growth of the stem and leave parts was inhibited 30% or more compared with non-treated area, or growth of the only root part was inhibited 60% or more compared with non-treated area.) | 9 (Growth of the stem and leave parts was inhibited 90% or more compared with non-treated area.) | 3 (Growth of the stem and leave parts was inhibited 30% or more compared with non-treated area, or growth of the only root part was inhibited 60% or more compared with non-treated area.) | 8 (Growth of the stem and leave parts was inhibited 80% or more compared with non-treated area.) | 0 | 8 (Growth of the stem and leave parts was inhibited 80% or more compared with non-treated area.) | –
2 | O=C(O)c1cccn1OCCCC(F)(F)F [Compound 8i] | 2 (Growth of the root part was inhibited 50% or more compared with non-treated area.) | 1 (“1” when a killing weed rate is 19% to 10%) | 3 (“3” when a killing weed rate is 39% to 30%) | 0 (“0” when a killing weed rate is 9% to 0%) | 0 (“0” when a killing weed rate is 9% to 0%) | 2 (“2” when a killing weed rate is 29% to 20%) | 2 (“2” when a killing weed rate is 29% to 20%) | 0 (“0” when a killing weed rate is 9% to 0%) | 0 (“0” when a killing weed rate is 9% to 0%) | – | – | – | – | – | – | – | – | –
3 | CCCCCOn1cc(-c2ccccc2)cc1C(=O)O [Compound 9a, 1-Pentyloxy-4-phenyl-1H-pyrrole-2-carboxylic acid] | – | 3 (“3” when a killing weed rate is 39% to 30%) | – | 8 (“8” when a killing weed rate is 89% to 80%) | – | 2 (“2” when a killing weed rate is 29% to 20%) | – | 3 (“3” when a killing weed rate is 39% to 30%) | – | 3 (Growth of the stem and leave parts was inhibited 30% or more compared with non-treated area, or growth of the only root part was inhibited 60% or more compared with non-treated area.) | – | 0 | – | 0 | – | 0 | – | 4
4 | CCCCCCCCCOn1cc(C)cc1C(=O)O [Compound 9c] | – | 2 (“2” when a killing weed rate is 29% to 20%) | 3 (“3” when a killing weed rate is 39% to 30%) | 1 (“1” when a killing weed rate is 19% to 10%) | 0 (“0” when a killing weed rate is 9% to 0%) | 3 (“3” when a killing weed rate is 39% to 30%) | 5 (“5” when a killing weed rate is 59% to 50%) | 5 (“5” when a killing weed rate is 59% to 50%) | 0 (“0” when a killing weed rate is 9% to 0%) | – | – | – | – | – | – | – | – | 3
5 | CCCCCOn1cc(-c2ccsc2)cc1C(=O)O [Compound 9j] | – | – | – | – | – | – | – | – | – | 4 (Growth of the stem and leave parts was inhibited 40% or more compared with non-treated area, or growth of the only root part was inhibited 80% or more compared with non-treated area.) | 3 (Growth of the stem and leave parts was inhibited 30% or more compared with non-treated area, or growth of the only root part was inhibited 60% or more compared with non-treated area.) | 8 (Growth of the stem and leave parts was inhibited 80% or more compared with non-treated area.) | 9 (Growth of the stem and leave parts was inhibited 90% or more compared with non-treated area.) | 3 (Growth of the stem and leave parts was inhibited 30% or more compared with non-treated area, or growth of the only root part was inhibited 60% or more compared with non-treated area.) | 5 (Growth of the stem and leave parts was inhibited 50% or more compared with non-treated area, or growth of the only root part was inhibited 100% or more compared with non-treated area.) | 0 | 5 (Growth of the stem and leave parts was inhibited 50% or more compared with non-treated area, or growth of the only root part was inhibited 100% or more compared with non-treated area.) | 2 (Growth of the root part was inhibited 50% or more compared with non-treated area.)
